Source: patent publication US6365603B1, “Aromatic compounds and pharmaceutical compositions containing them” (Zeneca Ltd., priority 1995, dated 2002)

tested on: not given; conditions: not given

| melting point | SMILES |
| --- | --- |
| 73 to 80 °C | CCN(Cc1cc(Br)ccc1OCC1CC1)c1ccc(C(=O)O)nn1 [Example 3, 6-[N-(5-Bromo-2-(cyclopropylmethoxy)benzyl)-N-ethylamino]pyridazine-3-carboxylic acid] |
| 135 to 137 °C | CCCOc1ccc(Br)cc1CN(CC)c1ccc(C(=O)O)nn1 [Example 18, 6-(N-[5-Bromo-2-propoxybenzyl]-N-ethylamino)pyridazine-3-carboxylic acid] |
| 177 to 178 °C | CCN(Cc1cc(Cl)ccc1OCC1CC1)c1ccc(C(N)=O)nn1 [Example 21, 6-[N-(5-Chloro-2-(cyclopropylmethoxy)benzyl)-N-ethylamino]pyridazine-3-carboxamide] |
| 119 to 120 °C | CCN(Cc1cc(Cl)ccc1OCC1CC1)c1ccc(C(=O)O)nn1 [Example 22, 6-[N-(5-Chloro-2-(cyclopropylmethoxy)benzyl)-N-ethylamino]pyridazine-3-carboxylic acid] |
| 190 to 192 °C | CCN(Cc1cc(Cl)ccc1OCC1CC1)c1ccc(-c2nnn[nH]2)nn1 [Example 23, 5-[6-(N-[5-Chloro-2-cyclopropylmethoxybenzyl]-N-ethylamino)pyridazin-3-yl]tetrazole] |

tested on: EP1 receptors; conditions: guinea pig ileum, dog fundus, cat trachea, chick ileum; cited from earlier work

| SMILES | block of the effect of PGE2 on tissues |
| --- | --- |
| CC(=O)NNC(=O)N1Cc2ccccc2Oc2ccc(Cl)cc21 [SC-19220] | blocks the effect of PGE2 on some tissues such as guinea pig ileum or dog fundus but not on other tissues such as the cat trachea or chick ileum |
